{"source": "patent US7393977B2", "about": "“Dicarboxylic acid salt of sibutramine” (CJ Cheiljedang Corporation, priority 2005, dated 2008)", "key": {"[1]": {"tested_on": "mouse", "conditions": "cited from earlier work"}, "[2]": {"tested_on": "rat", "conditions": "cited from earlier work"}, "[3]": {"experiment": "Non-hygroscopicity evaluation (water content by Karl-Fisher titrator after exposure to humid air)", "format": "physicochemical", "conditions": "for moisture absorption (in words): humid atmosphere of 95% relative humidity", "method": "Then, the water content of the samples was measured using a Karl-Fisher titrator. In Table 4, the water content of an active ingredient is expressed as a percentage of water content by weight (weight %)."}, "[4]": {"experiment": "Stability to heat (storage at 60° C., residual proportion by HPLC)", "format": "physicochemical", "conditions": "for residual proportion of the initial level of active ingredient: 60° C.; for heat stability (in words): compared with sibutramine hydrochloride monohydrate", "method": "(§1) The stability of an active ingredient used in a pharmaceutical composition to heat and light is a very important physical property during formulation into tablets and capsules and long-term storage. […] In detail, each compound was stored at 60° C. After 1, 2 and 4 weeks, the residual proportion of the initial level of an active ingredient was measured by high performance liquid chromatography (HPLC). Also, fluorescent light was radiated at 25° C. using a light stability test chamber suitable for the ICH guideline, and after 1, 2 and 4 weeks, the residual proportion of the initial level of an active ingredient was measured by HPLC."}, "[5]": {"experiment": "Stability to light (fluorescent light at 25° C., ICH light stability chamber, residual proportion by HPLC)", "format": "physicochemical", "conditions": "for residual proportion of the initial level of active ingredient: fluorescent light, 25° C.; for photostability (in words): compared with sibutramine hydrochloride monohydrate", "method": "as §1"}, "[6]": {"experiment": "Solubility evaluation in distilled water and at several pH values", "conditions": "37 °C, thermodynamic from solid"}, "[7]": {"conditions": "75% relative humidity at 25° C., 3 days"}, "[8]": {"conditions": "95% relative humidity at 25° C., 1 week"}}, "note": "Structures can show the parent of a compound that is named as a salt.", "data": [{"smiles": "Cl", "note": "[HCl, hydrochloric acid]", "values": [{"measurement": "LD50 in mouse (i.p.)", "setting": "[1]", "value": 40, "unit": "mg/kg"}, {"measurement": "LD50 in rat (oral)", "setting": "[2]", "value": 900, "unit": "mg/kg"}]}, {"smiles": "CC(C)CC(N(C)C)C1(c2ccc(Cl)cc2)CCC1", "note": "(centres unmarked) [Sibutramine HCl monohydrate, Sibutramine hydrochloride monohydrate, reference compound]", "values": [{"measurement": "water content (weight %)", "setting": "[3]; 75% relative humidity at 25° C., 3 days, hydrochloride monohydrate", "value": 5.49, "unit": "%"}, {"measurement": "water content (weight %)", "setting": "[3]; 95% relative humidity at 25° C., 1 week, hydrochloride monohydrate", "value": 5.5, "unit": "%"}, {"measurement": "water content (weight %)", "setting": "[3]; Initial, hydrochloride monohydrate", "value": 5.49, "unit": "%"}, {"measurement": "residual proportion of the initial level of active ingredient", "setting": "[4]; 1 week", "value": 1.000}, {"measurement": "residual proportion of the initial level of active ingredient", "setting": "[4]; 2 weeks", "value": 0.999}, {"measurement": "residual proportion of the initial level of active ingredient", "setting": "[4]; 4 weeks", "value": 0.999}, {"measurement": "residual proportion of the initial level of active ingredient", "setting": "[4]; Initial", "value": 1.000}, {"measurement": "residual proportion of the initial level of active ingredient", "setting": "[5]; 1 week", "value": 1.000}, {"measurement": "residual proportion of the initial level of active ingredient", "setting": "[5]; 2 weeks", "value": 0.999}, {"measurement": "residual proportion of the initial level of active ingredient", "setting": "[5]; 4 weeks, hydrochloride monohydrate", "value": 0.998}, {"measurement": "residual proportion of the initial level of active ingredient", "setting": "[5]; Initial", "value": 1.000}, {"measurement": "solubility", "setting": "[6]; pH 1.2, simulated gastric fluid", "value": 13.4, "unit": "mg/mL"}, {"measurement": "solubility", "setting": "[6]; pH 4, aqueous buffer", "value": 9.58, "unit": "mg/mL"}, {"measurement": "solubility", "setting": "[6]; pH 5.3, aqueous buffer", "value": 6.58, "unit": "mg/mL"}, {"measurement": "solubility", "setting": "[6]; pH 6.8, aqueous buffer", "value": 23.1, "unit": "mg/mL"}, {"measurement": "solubility", "setting": "[6]; pH 7.4, aqueous buffer", "value": 9.2, "unit": "mg/mL"}, {"measurement": "solubility", "setting": "[6]; distilled water, water", "value": 26.2, "unit": "mg/mL"}]}, {"smiles": "CC(C)CC(N(C)C)C1(c2ccc(Cl)cc2)CCC1", "note": "(centres unmarked) [Sibutramine malonate, sibutramine malonate]", "values": [{"measurement": "water content (weight %)", "setting": "[3]; [7]", "value": 0.02, "unit": "%"}, {"measurement": "water content (weight %)", "setting": "[3]; [8]", "value": 0.03, "unit": "%"}, {"measurement": "water content (weight %)", "setting": "[3]; Initial", "value": 0.03, "unit": "%"}, {"measurement": "moisture absorption (in words)", "setting": "[3]", "value": "did not absorb moisture"}, {"measurement": "residual proportion of the initial level of active ingredient", "setting": "[4]; 1 week", "value": 1.000}, {"measurement": "residual proportion of the initial level of active ingredient", "setting": "[4]; 2 weeks", "value": 0.999}, {"measurement": "residual proportion of the initial level of active ingredient", "setting": "[4]; 4 weeks", "value": 0.999}, {"measurement": "residual proportion of the initial level of active ingredient", "setting": "[4]; Initial", "value": 1.000}, {"measurement": "heat stability (in words)", "setting": "[4]", "value": "equal to those of sibutramine hydrochloride monohydrate"}, {"measurement": "photostability (in words)", "setting": "[5]", "value": "equal to those of sibutramine hydrochloride monohydrate"}, {"measurement": "residual proportion of the initial level of active ingredient", "setting": "[5]; 1 week", "value": 1.000}, {"measurement": "residual proportion of the initial level of active ingredient", "setting": "[5]; 2 weeks", "value": 0.999}, {"measurement": "residual proportion of the initial level of active ingredient", "setting": "[5]; 4 weeks", "value": 0.999}, {"measurement": "residual proportion of the initial level of active ingredient", "setting": "[5]; Initial", "value": 1.000}]}, {"smiles": "CC(C)CC(N(C)C)C1(c2ccc(Cl)cc2)CCC1", "note": "(centres unmarked) [Sibutramine oxalate, sibutramine oxalate]", "values": [{"measurement": "water content (weight %)", "setting": "[3]; [7]", "value": 0.03, "unit": "%"}, {"measurement": "water content (weight %)", "setting": "[3]; [8]", "value": 0.02, "unit": "%"}, {"measurement": "water content (weight %)", "setting": "[3]; Initial", "value": 0.02, "unit": "%"}, {"measurement": "moisture absorption (in words)", "setting": "[3]", "value": "did not absorb moisture"}, {"measurement": "residual proportion of the initial level of active ingredient", "setting": "[4]; 1 week", "value": 1.000}, {"measurement": "residual proportion of the initial level of active ingredient", "setting": "[4]; 2 weeks", "value": 0.999}, {"measurement": "residual proportion of the initial level of active ingredient", "setting": "[4]; 4 weeks", "value": 0.999}, {"measurement": "residual proportion of the initial level of active ingredient", "setting": "[4]; Initial", "value": 1.000}, {"measurement": "heat stability (in words)", "setting": "[4]", "value": "equal to those of sibutramine hydrochloride monohydrate"}, {"measurement": "photostability (in words)", "setting": "[5]", "value": "equal to those of sibutramine hydrochloride monohydrate"}, {"measurement": "residual proportion of the initial level of active ingredient", "setting": "[5]; 1 week", "value": 1.000}, {"measurement": "residual proportion of the initial level of active ingredient", "setting": "[5]; 2 weeks", "value": 0.999}, {"measurement": "residual proportion of the initial level of active ingredient", "setting": "[5]; 4 weeks", "value": 0.999}, {"measurement": "residual proportion of the initial level of active ingredient", "setting": "[5]; Initial", "value": 1.000}]}]}
